# Test results from patent publication US7521480B2, “Aryl ureido benzoic acid derivatives and their use” (Neurosearch, priority 2002, dated 2009).
# Target: T1, GluR5 receptor (Homo sapiens, UniProt P39086)
# T1 construct: expressed in transfected cells; host or cells: HEK 293
# Assay: GluR5 functional assay: inhibition of domoate-induced increase in Cai (FLIPR)
# Assay type: cell-based
# Details: HEK 293 cells stably expressing GluR5; domoate 2 μM; Fluo-4 FLIPR, 25° C.
# Text: (§1) This example describes cell-based assays carried out using human embryonic HEK 293 cells stably expressing GluR5 and GluR6 receptors, respectively, in which assays the inhibition of domoate-induced increase in Cai is used as a measure for glutamate antagonist activity of test substances.
# (§2) The intracellular free calcium concentration (Cai) is regulating the majority of metabolic processes in mammalian cells. Elevations of Cai in excitable tissues such as neurones are seen after specific activation of receptor operated calcium channels (e.g. glutamate, receptors), or after depolarisation and opening of voltage operated calcium channels. Some neurotransmitters and neuro-modulator increase Cai by activating G-protein coupled ionophors or by release of Cai from intracellular stores via the second messenger IP3.
# (§3) Cai is determined by fluorometric methods in a Fluorescent Image Plate Reader (FLIPR). Calcium-chelating fluorochromes (tetracarboxylic acids) are loaded into the cells as acetoxymethyl esters and subsequently released by an unspecific intracellular esterase. The free acids, which are impermeable to the cell membrane, are maintained in the cell for hours. The fluorescence spectrum (either EXmax, EMmax or both) is changed by the binding of calcium, and the fluorescence is directly proportional to the Cai.
# (§4) The present method uses the fluorochromes Fluo-3 or Fluo-4 as the calcium-chelator. Fluo-3/Fluo-4 is virtually non-fluorescent without calcium, but the calcium-Fluo-3/Fluo-4 complexes show a bright fluorescence (EMmax=526 nm) after excitation around 500 nm (EXmax=505 nm). This fluorescence spectrum is similar to the spectrum of fluorescein. Since excitation and emission is in the visible light region of the spectrum, standard equipment without quarts optics may be used.
# The kainate subtype of ionotropic glutamate receptors exists of two high affinity subunits—KA1 and KA2, and three low affinity subunits—GluR5-7. The ion channel in the GluR5 receptor subtype can be made permeable for calcium by substitution of an arginine (R) to a glutamine (Q) in the pore region. The stably expressed human GluR5 receptors used here are calcium permeable (Q), which makes them ideal for fluorescence measurements. […]
# (§5) After the loading period, the loading media is aspirated and the cells are washed twice with 100 μl Na^+ free Ringer (NN: 10 mM HEPES, 140 mM Choline chloride, 5 mM KCl, 1 mM MgCl2, 10 mM CaCl2, pH 7.4) to remove extracellular dye. 100 μl NN is added to each well, and the fluorescence is measured in the FLIPR.
# (§6) Cells are pre-incubated for 1.5 min with test compound (50 μl) before addition of domoate (50 μl) to a final concentration of 2 μM when determined on GluR5 and 0.2 μM when determined on GluR6. […]
# T1 sequence (P39086 31-918): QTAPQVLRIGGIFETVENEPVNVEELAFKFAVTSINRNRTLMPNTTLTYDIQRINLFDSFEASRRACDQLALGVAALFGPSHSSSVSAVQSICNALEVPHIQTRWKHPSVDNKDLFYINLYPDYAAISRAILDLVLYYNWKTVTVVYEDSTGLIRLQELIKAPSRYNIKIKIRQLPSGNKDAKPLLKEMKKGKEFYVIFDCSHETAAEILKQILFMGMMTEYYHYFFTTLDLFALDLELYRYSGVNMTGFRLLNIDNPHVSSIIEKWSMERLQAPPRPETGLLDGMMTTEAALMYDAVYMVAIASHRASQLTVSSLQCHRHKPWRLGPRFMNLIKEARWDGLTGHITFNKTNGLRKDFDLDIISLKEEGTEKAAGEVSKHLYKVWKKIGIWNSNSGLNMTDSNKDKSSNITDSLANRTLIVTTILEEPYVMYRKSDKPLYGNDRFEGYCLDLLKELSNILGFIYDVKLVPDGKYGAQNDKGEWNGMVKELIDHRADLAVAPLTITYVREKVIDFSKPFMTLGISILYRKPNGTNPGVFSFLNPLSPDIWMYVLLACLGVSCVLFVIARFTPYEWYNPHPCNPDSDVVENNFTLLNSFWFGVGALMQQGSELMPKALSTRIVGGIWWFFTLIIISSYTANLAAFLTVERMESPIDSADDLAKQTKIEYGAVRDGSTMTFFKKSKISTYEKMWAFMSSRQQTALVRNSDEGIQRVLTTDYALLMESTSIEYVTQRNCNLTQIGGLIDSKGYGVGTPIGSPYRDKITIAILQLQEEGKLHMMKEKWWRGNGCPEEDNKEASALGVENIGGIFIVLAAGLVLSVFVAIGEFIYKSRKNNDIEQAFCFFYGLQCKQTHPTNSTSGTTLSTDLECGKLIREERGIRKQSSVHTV
row,Compound,IC50
1,"2-[3-(3-Bromo-phenyl)-ureido]-4-chloro-benzenesulfonic acid, triethylammonium salt [Compound A1]",1.5 µM
2,"O=C(Nc1ccc2ccccc2c1)Nc1cc(Cl)ccc1C(=O)O [Compound E2, 4-Chloro-2-(3-naphtalen-2-yl-ureido)-benzoic acid]",1.2 µM
3,"O=C(Nc1cccc(Cl)c1)Nc1cc(Cl)ccc1C(=O)O [Compound C14, 4-Chloro-2-[3-(3-chloro-phenyl)-ureido]-benzoic acid]",1.3 µM
4,"Cc1cc(S(=O)(=O)O)c(NC(=O)Nc2cccc(Br)c2)cc1Cl [Compound 1a, 2-[3-(3-Bromo-phenyl)-ureido]-4-chloro-5-methyl-benzenesulfonic acid]",1.1 µM

# Target: T2, GluR6 receptor (Homo sapiens, UniProt Q13002)
# T2 construct: expressed in transfected cells; host or cells: HEK 293
# T2 sequence (Q13002 32-908): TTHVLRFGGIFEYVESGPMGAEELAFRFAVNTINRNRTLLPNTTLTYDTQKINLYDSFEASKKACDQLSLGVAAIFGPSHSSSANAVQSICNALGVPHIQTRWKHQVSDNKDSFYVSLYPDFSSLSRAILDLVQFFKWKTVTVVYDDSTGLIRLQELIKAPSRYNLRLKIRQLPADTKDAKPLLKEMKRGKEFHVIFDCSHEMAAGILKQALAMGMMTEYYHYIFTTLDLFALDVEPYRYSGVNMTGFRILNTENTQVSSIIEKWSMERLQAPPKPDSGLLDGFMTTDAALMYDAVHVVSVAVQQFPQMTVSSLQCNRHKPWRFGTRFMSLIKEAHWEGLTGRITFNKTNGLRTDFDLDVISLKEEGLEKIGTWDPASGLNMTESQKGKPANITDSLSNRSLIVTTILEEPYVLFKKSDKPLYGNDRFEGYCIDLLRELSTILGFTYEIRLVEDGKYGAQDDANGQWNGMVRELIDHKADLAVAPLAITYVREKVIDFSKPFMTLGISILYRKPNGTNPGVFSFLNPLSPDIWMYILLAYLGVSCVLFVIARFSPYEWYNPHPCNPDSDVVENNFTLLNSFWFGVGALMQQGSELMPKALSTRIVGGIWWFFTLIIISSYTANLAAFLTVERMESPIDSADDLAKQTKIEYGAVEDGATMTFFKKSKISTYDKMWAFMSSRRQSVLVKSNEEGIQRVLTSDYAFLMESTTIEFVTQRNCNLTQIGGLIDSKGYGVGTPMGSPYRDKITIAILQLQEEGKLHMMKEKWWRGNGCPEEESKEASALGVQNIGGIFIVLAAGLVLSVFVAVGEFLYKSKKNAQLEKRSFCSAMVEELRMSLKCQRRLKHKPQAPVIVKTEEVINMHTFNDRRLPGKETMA
# Assay: GluR6 functional assay: inhibition of domoate-induced increase in Cai (FLIPR)
# Assay type: cell-based
# Details: HEK 293 cells stably expressing GluR6; domoate 0.2 μM; Fluo-4 FLIPR, 25° C.
# Text: as §1, §2, §3
# as §4, with “used. […]” for “used.”
# as §5, §6
# • Temperature: 25° C. • Preincubation: 50 μl test solution at a rate of 30 μl/sec and starting height of 100 μl • […] phase: 50 μl domoate solution (8 μM) at a rate of 35 μl/sec and starting height of 150 μl • Reading intervals: preincubation—10 sec×7 and 3 sec×3 antagonist phase—3 sec×17 and 10 sec×12 […]
row,Compound,IC50
1,"2-[3-(3-Bromo-phenyl)-ureido]-4-chloro-benzenesulfonic acid, triethylammonium salt [Compound A1]",10 µM
2,"O=C(Nc1ccc2ccccc2c1)Nc1cc(Cl)ccc1C(=O)O [Compound E2, 4-Chloro-2-(3-naphtalen-2-yl-ureido)-benzoic acid]",70 µM
3,"O=C(Nc1cccc(Cl)c1)Nc1cc(Cl)ccc1C(=O)O [Compound C14, 4-Chloro-2-[3-(3-chloro-phenyl)-ureido]-benzoic acid]",37 µM
4,"Cc1cc(S(=O)(=O)O)c(NC(=O)Nc2cccc(Br)c2)cc1Cl [Compound 1a, 2-[3-(3-Bromo-phenyl)-ureido]-4-chloro-5-methyl-benzenesulfonic acid]",32 µM

# Tested on: not given
# Assay: not given
# Details: not given
row,Compound,melting point
1,O=C(Nc1ccc(F)cc1)Nc1cc(Cl)ccc1C(=O)O,194 to 195 °C
2,O=C(Nc1ccc(O)cc1)Nc1cc(Cl)ccc1C(=O)O,212 to 214 °C (dec.)
3,O=C(Nc1cccc(C(F)(F)F)c1)Nc1cc(Cl)ccc1-c1noc(=O)[nH]1,246 to 248 °C (dec.)
4,O=C(Nc1ccccn1)Nc1cc(Cl)ccc1C(=O)O,222 to 224 °C
5,O=C(Nc1ccc(Cl)cc1)Nc1cc(Cl)ccc1C(=O)O,205 to 207 °C
6,O=C(Nc1cc(Cl)ccc1C(=O)O)Nc1ccccc1C(F)(F)F,173 to 175 °C
7,"O=C(Nc1ccc2ccccc2c1)Nc1cc(Cl)ccc1C(=O)O [Compound E2, 4-Chloro-2-(3-naphtalen-2-yl-ureido)-benzoic acid]",176 to 179 °C
8,O=C(Nc1cccc(Br)c1)Nc1cc(Cl)ccc1-c1noc(=O)[nH]1,210 to 211 °C (dec.)
9,"O=C(Nc1cccc(Cl)c1)Nc1cc(Cl)ccc1C(=O)O [Compound C14, 4-Chloro-2-[3-(3-chloro-phenyl)-ureido]-benzoic acid]",207 to 209 °C
10,O=C(Nc1ccc2c(c1)OCO2)Nc1cc(Cl)ccc1C(=O)O,183 to 185 °C
11,O=C(Nc1cccs1)Nc1cc(Cl)ccc1C(=O)O,199 to 200 °C
12,O=C(Nc1ccc(I)cc1)Nc1cc(Cl)ccc1C(=O)O,209 to 210 °C (dec.)
13,O=C(Nc1cccc(C(F)(F)F)c1)Nc1cc(Cl)ccc1C(=O)O,179 to 182 °C
14,O=C(Nc1ccc(-c2ccccc2)cc1)Nc1cc(Cl)ccc1C(=O)O,193 to 194 °C
15,O=C(Nc1cc(Cl)ccc1C(=O)O)Nc1ccccc1-c1ccccc1,208 to 209 °C
16,COc1ccc(NC(=O)Nc2cc(Cl)ccc2C(=O)O)cc1,194 to 195 °C

# The next lines start with the values.
row,melting point,Compound
1,> 300 °C,Cc1cc(S(=O)(=O)O)c(NC(=O)Nc2ccc3ccccc3c2)cc1Cl
2,186 to 188 °C,O=C(Nc1ccccc1)Nc1cc(Cl)ccc1C(=O)O
3,179 to 180 °C (dec.),O=C(Nc1ccccc1O)Nc1cc(Cl)ccc1C(=O)O
4,209 to 211 °C,O=C(Nc1cccc(O)c1)Nc1cc(Cl)ccc1C(=O)O
5,284 to 286 °C (dec.),Cc1cc(S(=O)(=O)O)c(NC(=O)Nc2cc3ccccc3[nH]2)cc1Cl
6,167 to 169 °C (dec.),O=C(Nc1ccc2ccccc2c1)Nc1cc(Cl)ccc1-c1nnn[nH]1
7,260 to 263 °C (dec.),O=C(Nc1ccc2c(c1)-c1ccccc1C2=O)Nc1cc(Cl)ccc1C(=O)O
8,277 to 279 °C (dec.),O=C(Nc1cc2ccccc2[nH]1)Nc1cc(Cl)ccc1S(=O)(=O)O
9,181 to 183 °C,COc1ccccc1NC(=O)Nc1cc(Cl)ccc1C(=O)O
10,192 to 193 °C,O=C(Nc1cccc(I)c1)Nc1cc(Cl)ccc1C(=O)O
11,195 to 197 °C,O=C(Nc1ccccc1Br)Nc1cc(Cl)ccc1C(=O)O
12,181 to 183 °C,O=C(Nc1cccc(-c2ccccc2)c1)Nc1cc(Cl)ccc1C(=O)O
